Data as given in patent US20050152845A1, “Amorphous fluticasone 2-furoate, pharmaceutical compositions thereof and its conversion to the crystalline unsolvated form” (priority 2002, published 2005).

How the values were obtained:
lung eosinophilia = experiment: Ovalbumin sensitised Brown Norway rat eosinophilia model; assay type: in vivo; conditions: single dose of 30 μg, intra-tracheal suspension in saline 30 min prior to ovalbumin challenge
Experimental: Pharmacological activity in vivo was assessed in an ovalbumin sensitised Brown Norway rat eosinophilia model. This model is designed to mimic allergen induced lung eosinophilia, a major component of lung inflammation in asthma.

[1] = Pharmacokinetics after intra-tracheal dry powder dosing in the pig; assay type: in vivo; conditions: 1 mg intra-tracheal, LLOQ 10 pg/mL compound (I), 20pg/mL fluticasone propionate
Experimental: Serial blood samples were taken for up to 8 h following dosing.

thymus weight = experiment: Rat model of thymus involution; assay type: in vivo; conditions: 3 daily IT doses of 100 μg
NFκB = experiment: Transrepression reporter assay (firefly luciferase, NFκB promoter, TNFα stimulated) in A549 cells; assay type: cell-based; conditions: Homo sapiens, 1 h compound then 0.5ng/ml TNFα 15 hours, read-out: Transrepression (NFκB) ED50
Excerpt: (§1) The glucocorticoid receptor (GR) can function in at least two distinct mechanisms, by upregulating gene expression through the direct binding of GR to specific sequences in gene promoters, and by downregulating gene expression that is being driven by other transcription factors (such as NFκB or AP-1) through their direct interaction with GR.
The first cell line contains the firefly luciferase reporter gene under the control of a synthetic promoter that specifically responds to activation of the transcription factor NFκB when stimulated with TNFα. The second cell line contains the renilla luciferase reporter gene under the control of a synthetic promotor that comprises 3 copies of the consensus glucocorticoid response element, and which responds to direct stimulation by glucocorticoids. Simultaneous measurement of transactivation and transrepression was conducted by mixing the two cell lines in a 1:1 ratio in 96 well plate (40,000 cells per well) and growing overnight at 37° C. Test compounds were dissolved in DMSO, and added to the cells at a final DMSO concentration of 0.7%. […] Dose response curves were constructed from which EC50 values were determined.

[2] = target: T1, glucocorticoid receptor (GR) (Homo sapiens, UniProt P04150); experiment: Transactivation reporter assay (renilla luciferase, glucocorticoid response element) in A549 cells; assay type: cell-based; conditions: 1 h compound then 0.5ng/ml TNFα 15 hours, read-out: Transactivation (GR) ED50
T1 construct: two reporter plasmids have been generated and introduced separately into A549 human lung epithelial cells by transfection; endogenous in cells; host or cells: A549 human lung epithelial cells stably carrying a renilla luciferase reporter with 3 copies of the consensus GRE
T1 sequence (P04150 1-777): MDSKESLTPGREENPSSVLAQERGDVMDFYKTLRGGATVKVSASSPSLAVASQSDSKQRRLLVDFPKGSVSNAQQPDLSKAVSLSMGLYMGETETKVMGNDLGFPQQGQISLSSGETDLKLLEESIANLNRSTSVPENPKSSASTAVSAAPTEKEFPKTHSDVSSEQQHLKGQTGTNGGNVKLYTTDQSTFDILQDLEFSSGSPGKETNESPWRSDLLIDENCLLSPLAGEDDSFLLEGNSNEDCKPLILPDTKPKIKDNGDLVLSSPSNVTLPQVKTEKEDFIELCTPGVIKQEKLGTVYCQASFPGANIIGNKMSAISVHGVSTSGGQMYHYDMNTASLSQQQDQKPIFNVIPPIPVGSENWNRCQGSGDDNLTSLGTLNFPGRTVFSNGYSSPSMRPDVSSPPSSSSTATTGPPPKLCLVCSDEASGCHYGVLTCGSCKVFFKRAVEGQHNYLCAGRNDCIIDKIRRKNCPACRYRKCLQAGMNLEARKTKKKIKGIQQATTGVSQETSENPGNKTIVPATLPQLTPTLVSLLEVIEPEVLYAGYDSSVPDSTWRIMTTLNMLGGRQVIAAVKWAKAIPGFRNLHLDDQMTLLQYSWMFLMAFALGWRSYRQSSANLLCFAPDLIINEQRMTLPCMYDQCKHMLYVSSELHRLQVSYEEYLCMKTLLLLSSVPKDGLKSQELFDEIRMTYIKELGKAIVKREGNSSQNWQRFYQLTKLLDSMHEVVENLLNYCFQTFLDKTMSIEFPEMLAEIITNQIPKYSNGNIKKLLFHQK
Excerpt: as §1
In a variant of the above method, to monitor these functions, two reporter plasmids have been generated and introduced separately into A549 human lung epithelial cells by transfection. The first cell line contains the firefly luciferase reporter gene under the control of a synthetic promoter that specifically responds to activation of the transcription factor NFκB when stimulated with TNFα. The second cell line contains the renilla luciferase reporter gene under the control of a synthetic promotor that comprises 3 copies of the consensus glucocorticoid response element, and which responds to direct stimulation by glucocorticoids. […] After incubation for 1 h 0.5ng/ml TNFα (R&D Systems) was added and after a further 15 hours at 37° C., the levels of firefly and renilla luciferase were measured using the Packard Firelite kit following the manufacturers' directions. Dose response curves were constructed from which EC50 values were determined.

glucocorticoid receptor = target: T2, glucocorticoid receptor (Homo sapiens, UniProt P04150); experiment: In vitro functional glucocorticoid assays, metabolite versus parent; assay type: cell-based
T2 construct: endogenous in cells
T2 sequence (P04150 1-777): T1 sequence (P04150 1-777)
Experimental: Compound (I) undergoes highly efficient hepatic metabolism to yield the 17-β carboxylic acid (X) as the sole major metabolite in rat and human in vitro systems.
The functional assay was based on that described by K. P. Ray et al., Biochem J. (1997), 328, 707-715. A549 cells stably transfected with a reporter gene containing the NF-κB responsive elements from the ELAM gene promoter coupled to sPAP (secreted alkaline phosphatase) were treated with test compounds at appropriate doses for 1 hour at 37° C. The cells were then stimulated with tumour necrosis factor (TNF, 10ng/ml) for 16 hours, at which time the amount of alkaline phosphatase produced is measured by a standard colourimetric assay. Dose response curves were constructed from which EC50 values were estimated.
In a variant of the above method, to monitor these functions, two reporter plasmids have been generated and introduced separately into A549 human lung epithelial cells by transfection. […] After incubation for 1 h 0.5ng/ml TNFα (R&D Systems) was added and after a further 15 hours at 37° C., the levels of firefly and renilla luciferase were measured using the Packard Firelite kit following the manufacturers' directions. Dose response curves were constructed from which EC50 values were determined.

Compound | inhibition of lung eosinophilia (lung eosinophilia) | time after dosing up to which quantifiable in plasma [1] | reduction of thymus weight (thymus weight) | EC50 (NFκB) | EC50 [2] | fold less active than the parent compound (glucocorticoid receptor)
CCC(=O)O[C@]1(C(=O)SCF)[C@H](C)C[C@H]2[C@@H]3C[C@H](F)C4=CC(=O)C=C[C@]4(C)[C@@]3(F)[C@@H](O)C[C@@]21C [Fluticasone propionate, 6α, 9α-Difluoro-17α-(1-oxopropoxy)-11β-hydroxy-16α-methyl-3-oxo-androsta-1,4-diene-17β-carbothioic acid S-fluoromethyl ester, reference compound] | 41% | up to 8 hours | 78% |  |  | 
C[C@@H]1CCC2C3C[C@H](F)C4=CC(=O)C=C[C@]4(C)[C@@]3(F)[C@@H](O)C[C@]2(C)[C@@]1(OC(=O)c1ccco1)C(=O)O (stereo partly drawn) [Metabolite (X)] |  |  |  | > 1000 nM | > 250 nM | > 1000 fold
